From patent US4275248A, “Preparation of 2,4,6-triisopropylphenol” (UOP Inc., priority 1980, dated 1981)
“Also recorded” adds a separate entry of the source. Read-outs that look alike come from different tables or passages of the source.

Legend:
[1] = Gum formation under accelerated storage conditions, ANSI/ASTM method D873-74, gasoline sample A
Protocol: (§1) The effectiveness of materials as antioxidants in liquid petroleum products was determined by measurement of the induction period prior to oxidation, ANSI/ASTM method D525-74, and by measurement of gum formation under accelerated storage conditions, ANSI/ASTM method D873-74. The liquid petroleum product was either a base washed riser-cracked gasoline from British Petroleum Co., Canada (sample A) or a base washed, blended full range gasoline from Union Oil (sample B). As a comparison, there is included an antioxidant of wide commercial utility which consists of 2,6-di-t-butylphenol (75%), 2,4,6-tri-t-butylphenol (15%) and 2,t-butylphenol (10%) and which we designate by the symbol E733.

[2] = Induction period prior to oxidation, ANSI/ASTM method D525-74, gasoline sample A
Protocol: as §1

[3] = Gum formation under accelerated storage conditions, ANSI/ASTM method D873-74, gasoline sample B; settings: runs 4-7 (no additive: 320)
Protocol: as §1

[4] = Oxidative stability of gasoline / petroleum distillates, overall antioxidant effectiveness in words; settings: for effectiveness in increasing the induction period: versus commercial product commonly used to stabilize gasoline
Text: Among the products which may be prepared by this invention, the di- and tri-isopropylated hydroxy substituted aromatic compounds are effective antioxidants for stabilizing various petroleum distillates. Examples of the latter include home heating fuel, gasoline, diesel fuel, aviaton fuel, kerosene, and lubricating oils. […] One way of determining the stabilizing effect of additives is to compare the induction period to oxidation of a composton differing only in the nature of the additive present. […] The di- and tri-isopropylated phenols of the present invention may be used as antioxidants at concentrations from about 5 parts per million by weight to about 5% by weight, and preferably from about 5 to about 500 parts per million by weight when used in fuel oils.
as §1

[5] = Induction period prior to oxidation, ANSI/ASTM method D525-74, gasoline sample B; settings: runs 4-7 (no additive: 80-105)
Protocol: as §1

[6] = 35 ppm, runs 4-7 (no additive: 180)
[7] = 50 ppm, runs 4-7 (no additive: 180)
[8] = 20 ppm, runs 4-7 (no additive: 125-130)
[9] = 35 ppm, runs 4-7 (no additive: 125-130)
[10] = 50 ppm, runs 4-7 (no additive: 125-130)

Compound	Accelerated Gum [1, 6]	Accelerated Gum [1, 7]	Induction Period [2, 8] [min]	Induction Period [2, 9] [min]	Induction Period [2, 10] [min]	Accelerated Gum ([3]; 20 ppm) [mg/100 ml]	Accelerated Gum ([3]; 35 ppm) [mg/100 ml]	Accelerated Gum ([3]; 50 ppm) [mg/100 ml]	antioxidant effectiveness for stabilizing petroleum distillates [4]	imparting oxidative stability to the gasolines tested [4]	effectiveness in increasing the induction period [4]	Induction Period ([5]; 20 ppm) [min]	Induction Period ([5]; 35 ppm) [min]	Induction Period ([5]; 50 ppm) [min]	Accelerated Gum ([1]; 20 ppm, runs 1-3 (no additive: 45)) [mg/100 ml]	Accelerated Gum ([1]; 40 ppm, runs 1-3 (no additive: 45)) [mg/100 ml]	Induction Period ([2]; 20 ppm, runs 1-3 (no additive: 170)) [min]	Induction Period ([2]; 40 ppm, runs 1-3 (no additive: 170)) [min]	antioxidant effectiveness for stabilizing petroleum distillates ([4]; general statement in words)	imparting oxidative stability to the gasolines tested ([4]; versus commercial standard, measured by increase in induction period and decrease in gum formation)
CC(C)c1cc(C(C)C)c(O)c(C(C)C)c1 [2,4,6-triisopropylphenol]	7-8 mg/100 ml	7-8 mg/100 ml	245	310	375	13	2.5	2.5	particularly effective	substantially more effective than an accepted commercial standard	substantially more effective in increasing the induction period	270	350	420	–	–	–	–	–	–
Cc1cc(C(C)C)c(O)c(C(C)C)c1 [2,6-diisopropyl-4-methylphenol]	–	–	–	–	–	–	–	–	–	–	substantially more effective in increasing the induction period	–	–	–	5	3	340	475	particularly effective; also recorded: particularly desirable antioxidant properties	substantially more effective than an accepted commercial standard
CC(C)c1cccc(C(C)C)c1O [2,6-diisopropylphenol]	35 mg/100 ml	9 mg/100 ml	200	240	305	–	4.5	3.5	–	–	–	195	250	310	–	–	–	–	–	–
